Assay results from paper PMC8301776, “New Hybrid Compounds Combining Fragments of Usnic Acid and Monoterpenoids for Effective Tyrosyl-DNA Phosphodiesterase 1 Inhibition” (Biomolecules, 2021).
Entries after “also recorded” stand apart in the source; their conditions may differ. Read-outs that look alike come from different tables or passages of the source.

Key:
HeLa cells [1] = experiment: Topotecan cytotoxicity in combination with TDP1 inhibitors, colorimetric test, HeLa; type: cell-based, human
Procedure: (§1) Cytotoxicity of the compounds was examined against human cell lines HEK293A (human embryonic kidney)—WT and TDP1-deficient (Tdp1-/-), and HeLa (cervical cancer) using an EZ4U colorimetric tests (Biomedica, Vienna, Austria) or xCELLigence DP Real-Time Cell Analyzer (ACEA Biosciences, Santa Clara, CA, USA). Cell lines were obtained from the Russian Cell Culture Collection (RCCC) Institute of Cytology RAS (St. Petersburg, Russia). The cells were grown in DMEM/F12 medium (Thermo Fisher Scientific, Waltham, MA, USA), with 1× GlutaMAX (Thermo Fisher Scientific, Waltham, MA, USA), 50 IU/mL penicillin, and 50 μg/mL streptomycin (Thermo Fisher Scientific, Waltham, MA, USA), and in the presence of 10% fetal bovine serum (Biolot, Saint-Petersburg, Russia) in 5% CO2 atmosphere. Control cells were grown in the presence of 1% DMSO where indicated. After formation of a 30–50% monolayer, tested compounds were added to the medium, and the cell culture was monitored for 3 days. […] The measurements were carried out in three parallel experiments.
The combination index (CI) values were determined for different concentrations of Tpc and the enamines 11a–d at 2 and 5 μM. […] The CI values were calculated with the CompuSyn version 1.0 software. The CI plot at different fraction-affected (Fa) was determined for Tpc (0.3, 0.5, 1, 2, and 4 μM) and the Tdp1 inhibitors (2 and 5 μM).

HEK293A TDP1-/- cells = experiment: Topotecan cytotoxicity alone or in combination, colorimetric test, HEK293A TDP1-/- clones C6, G6, F7; type: cell-based, human; conditions: HEK293A Tdp1-/- cells; combination with Tpc
Excerpt: TDP1 knockout HEK293A clones were obtained in the same way as the previously described TDP1 knockout HEK293FT clones. Briefly, two 20-nt protospacer sequences flanking the first protein coding exon of human TDP1 gene were selected using https://www.benchling.com/ (accessed date 1 November 2020). Oligonucleotides were cloned in plasmid pSpCas9(BB)-2A-GFP (PX458). pSpCas9(BB)-2A-GFP (PX458) was a gift from Feng Zhang (Addgene plasmid # 48138; http://n2t.net/addgene:48138; RRID: Addgene_48138). HEK293A cells were transfected with plasmids pX458-TDP1-gRNA1 and pX458-TDP1-gRNA2 (0.25 µg of each) using Lipofectamine 3000 Reagent (Thermofisher Scientific, Waltham, MA, USA). Growth medium contained DMEM/F12 (Thermofisher Scientific, Waltham, MA, USA) 1:1, 10% FBS (Thermofisher Scientific, Waltham, MA, USA), 100 U/mL penicillin–streptomycin (Thermofisher Scientific, Waltham, MA, USA), and 1 × GlutaMAX (Thermofisher Scientific, Waltham, MA, USA). […] Single cell clones grew for two weeks, and genome DNA was analyzed on CRISPR/Cas9-mediated deletions in TDP1 gene by PCR amplification of target region with primers: TDP1-scF 5′-[…]-3′ and TDP1-scR 5′-[…]-3′. […]
Cytotoxicity of the compounds was examined against human cell lines HEK293A (human embryonic kidney)—WT and TDP1-deficient (Tdp1-/-), and HeLa (cervical cancer) using an EZ4U colorimetric tests (Biomedica, Vienna, Austria) or xCELLigence DP Real-Time Cell Analyzer (ACEA Biosciences, Santa Clara, CA, USA). […] After formation of a 30–50% monolayer, tested compounds were added to the medium, and the cell culture was monitored for 3 days. […]
In our previous work, the cytotoxic effect of Tpc and the TDP1 inhibitors, monoterpene 3-carene derivatives, was established; both were measured separately and jointly using a panel of HEK293FT TDP1 knockout isogenic clones. […] No cleavage activity was detected in the clones’ C6, G6, and F7 cell extracts in contrast to control WT and purified TDP1. […]

HEK293A WT cells [2] = experiment: xCELLigence impedance-based real-time cell growth assay, alone or with Tpc; set-up: species or system human
Procedure: as §1
This stimulation was also confirmed for HEK293A WT cells using the xCELLigence DP Real-Time Cell Analyzer impedance-based assay (Figure 9). […] The stimulation effect depends on the concentration of compounds 11a and 11c (Figure 9B,C).
(A). Cell growth of HEK293A cells in the control wells without compounds added (black), with 50 nM Tpc (red), 40 µM 11a (dark green), or 40 µ M 11c (violet). (B,C) Cell growth of HEK293A cells with 50 nM Tpc only (red) and in combination with 5 µM (green), 10 µM (dark blue), 20 µM (pink), or 40 µM (blue) 11a (B) or 11c (C).

HeLa cells [3] = experiment: Intrinsic cytotoxicity, EZ4U colorimetric test, HeLa; type: cell-based, human; conditions: Figure 6
Procedure: as §1
(§2) The intrinsic cytotoxicity of the four lead compounds (11a–d) was examined using a colorimetric test (Figure 6).

HEK293A WT cells [4] = experiment: Topotecan cytotoxicity in combination with TDP1 inhibitors, colorimetric test, HEK293A WT; type: cell-based, human
Procedure: as §1
There was no difference between WT and the mutant cells.

HEK293A cells = experiment: Intrinsic cytotoxicity, EZ4U colorimetric test, HEK293A; type: cell-based, human; conditions: Figure 6
Procedure: as §1, §2

TDP1 = molecular target: T1, TDP1 (Homo sapiens, UniProt Q9NUW8); experiment: Real-time fluorescence detection of TDP1 activity (FAM/BHQ1 oligonucleotide biosensor); type: biochemical
T1 construct: made in house; host or cells: E. coli

[5] = as repeated in Table S1, read-out: IC50
[6] = as repeated in Table S2, read-out: IC50
[7] = as repeated in Table S3, read-out: IC50
[8] = real-time fluorescent test, 1.5 nM TDP1, 50 nM substrate, 26 °C, read-out: IC50, TDP1 activity

T1 sequence (Q9NUW8 whole entry): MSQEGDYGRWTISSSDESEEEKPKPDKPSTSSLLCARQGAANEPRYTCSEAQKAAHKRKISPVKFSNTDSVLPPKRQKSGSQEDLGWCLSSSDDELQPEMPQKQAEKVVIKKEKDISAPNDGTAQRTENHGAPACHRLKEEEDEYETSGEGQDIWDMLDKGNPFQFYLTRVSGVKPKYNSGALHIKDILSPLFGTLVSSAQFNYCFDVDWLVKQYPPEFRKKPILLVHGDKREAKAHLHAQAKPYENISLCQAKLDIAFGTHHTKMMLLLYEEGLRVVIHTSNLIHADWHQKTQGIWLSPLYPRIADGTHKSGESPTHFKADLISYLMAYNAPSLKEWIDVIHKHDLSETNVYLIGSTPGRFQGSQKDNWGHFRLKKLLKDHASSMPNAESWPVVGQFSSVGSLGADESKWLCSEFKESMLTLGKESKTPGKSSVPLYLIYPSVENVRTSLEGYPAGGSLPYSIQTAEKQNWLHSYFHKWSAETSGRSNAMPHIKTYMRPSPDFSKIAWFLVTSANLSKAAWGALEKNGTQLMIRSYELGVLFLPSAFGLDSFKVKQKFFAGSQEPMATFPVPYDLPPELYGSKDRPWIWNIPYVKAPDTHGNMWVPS

Structure (SMILES)	effect on Tpc cytotoxicity (in words) (HeLa cells [1])	effect on cell growth in combination with Tpc, compared to Tpc (in words) (HEK293A TDP1-/- cells)	effect on cell growth with Tpc, compared to Tpc (HEK293A WT cells [2]; 50 nM Tpc + 5, 10, 20 or 40 µM compound)	toxicity of compound alone (in words) (HEK293A WT cells [2]; 40 µM compound)	intrinsic cytotoxicity (in words) (HeLa cells [3])	effect on Tpc cytotoxicity / cell growth, compared to Tpc (in words) (HEK293A WT cells [4])	intrinsic cytotoxicity (in words) (HEK293A cells)	IC50 (TDP1; [5])	IC50 (TDP1; [6])	IC50 (TDP1; [7])	IC50, TDP1 activity (TDP1; real-time fluorescent test, 1.5 nM TDP1, 50 nM substrate, 26 °C)	IC50 (TDP1; [8])
CC(=O)c1c(O)c(C)c(O)c2c1OC1=CC(=O)/C(=C(/C)NCC[C@@H](C)CCC=C(C)C)C(=O)[C@@]12C [11a, (2R,4E)-10-Acetyl-4-(1-{[(3S)-3,7-dimethyloct-6-en-1-yl]amino}ethylidene)-11,13-dihydroxy-2,12-dimethyl-8-oxatricyclo[7.4.0.0^2,7]trideca-1(13),6,9,11-tetraene-3,5-dione]	enhanced topotecan’s cytotoxicity; also recorded: synergistic effect; also recorded: enhanced Tpc cytotoxicity	stimulation of cell growth	stimulated cell growth	modestly toxic	non-cytotoxic	reduced it; also recorded: stimulation of cell growth; also recorded: stimulated cell growth	non-cytotoxic	0.4 µM	–	–	–	–
CC(=O)c1c(O)c(C)c(O)c2c1OC1=CC(=O)/C(=C(/C)NC/C=C(\C)CCC=C(C)C)C(=O)[C@@]12C [11b, (2R,4E)-10-Acetyl-4-(1-{[(2E)-3,7-dimethylocta-2,6-dien-1-yl]amino}ethylidene)-11,13-dihydroxy-2,12-dimethyl-8-oxatricyclo[7.4.0.0^2,7]trideca-1(13),6,9,11-tetraene-3,5-dione]	–	–	–	–	completely suppressed cell growth at 100 μM	–	completely suppressed cell growth at 100 μM	0.32 µM	–	–	–	–
CC(=O)c1c(O)c(C)c(O)c2c1OC1=CC(=O)/C(=C(/C)NCC3=CC[C@H]4C[C@@H]3C4(C)C)C(=O)[C@@]12C [11d, (2R,4E)-10-Acetyl-4-[1-({[(1R,5S)-6,6-dimethylbicyclo[3.1.1]hept-2-en-2-yl]methyl}amino)ethylidene]-11,13-dihydroxy-2,12-dimethyl-8-oxatricyclo[7.4.0.0^2,7]trideca-1(13),6,9,11-tetraene-3,5-dione]	–	–	–	–	completely suppressed cell growth at 100 μM	–	completely suppressed cell growth at 100 μM	0.23 µM	–	–	–	–
C=C(C)[C@@H]1CC=C(CN/C(C)=C2\C(=O)C=C3Oc4c(C(C)=O)c(O)c(C)c(O)c4[C@@]3(C)C2=O)CC1 [11e, (2R,4E)-10-Acetyl-11,13-dihydroxy-2,12-dimethyl-4-[1-({[(4S)-4-(prop-1-en-2-yl)cyclohex-1-en-1-yl]methyl}amino)ethylidene]-8-oxatricyclo[7.4.0.0^2,7]trideca-1(13),6,9,11-tetraene-3,5-dione]	–	–	–	–	–	–	–	> 10 µM	> 10 µM	> 10 µM	did not inhibit the enzyme	> 10 µM
CC(=O)c1c(O)c(C)c(O)c2c1OC1=CC(=O)/C(=C(/C)NCCCC(=O)OCC[C@H](C)CCC=C(C)C)C(=O)[C@@]12C [13a, (3R)-3,7-Dimethyloct-6-en-1-yl 4-({1-[(2R,4E)-10-acetyl-11,13-dihydroxy-2,12-dimethyl-3,5-dioxo-8-oxatricyclo[7.4.0.0^2,7]trideca-1(13),6,9,11-tetraen-4-ylidene]ethyl}amino)butanoate]	–	–	–	–	–	–	–	> 10 µM	> 10 µM	> 10 µM	–	> 10 µM
CC(=O)c1c(O)c(C)c(O)c2c1OC1=CC(=O)/C(=C(/C)NCCCC(=O)OC/C=C(\C)CCC=C(C)C)C(=O)[C@@]12C [13b, (2E)-3,7-Dimethylocta-2,6-dien-1-yl 4-({1-[(2R,4E)-10-acetyl-11,13-dihydroxy-2,12-dimethyl-3,5-dioxo-8-oxatricyclo[7.4.0.0^2,7]trideca-1(13),6,9,11-tetraen-4-ylidene]ethyl}amino)butanoate]	–	–	–	–	–	–	–	> 10 µM	> 10 µM	> 10 µM	–	> 10 µM
CC(=O)c1c(O)c(C)c(O)c2c1OC1=CC(=O)/C(=C(/C)NCCCC(=O)OCCC3=CC[C@H]4C[C@@H]3C4(C)C)C(=O)[C@@]12C [13c, 2-[(1R,5S)-6,6-Dimethylbicyclo[3.1.1]hept-2-en-2-yl]ethyl 4-({1-[(2R,4E)-10-acetyl-11,13-dihydroxy-2,12-dimethyl-3,5-dioxo-8-oxatricyclo[7.4.0.0^2,7]trideca-1(13),6,9,11-tetraen-4-ylidene]ethyl}amino)butanoate]	–	–	–	–	–	–	–	> 10 µM	> 10 µM	> 10 µM	–	> 10 µM
CC(=O)c1c(O)c(C)c(O)c2c1OC1=CC(=O)/C(=C(/C)NCCCC(=O)OCC3=CC[C@H]4C[C@@H]3C4(C)C)C(=O)[C@@]12C [13d, [(1R,5S)-6,6-Dimethylbicyclo[3.1.1]hept-2-en-2-yl]methyl 4-({1-[(2R,4E)-10-acetyl-11,13-dihydroxy-2,12-dimethyl-3,5-dioxo-8-oxatricyclo[7.4.0.0^2,7]trideca-1(13),6,9,11-tetraen-4-ylidene]ethyl}amino)butanoate]	–	–	–	–	–	–	–	> 10 µM	> 10 µM	> 10 µM	–	> 10 µM
C=C(C)[C@@H]1CC=C(COC(=O)CCCN/C(C)=C2\C(=O)C=C3Oc4c(C(C)=O)c(O)c(C)c(O)c4[C@@]3(C)C2=O)CC1 [13e, [(4S)-4-(Prop-1-en-2-yl)cyclohex-1-en-1-yl]methyl 4-({1-[(2R,4E)-10-acetyl-11,13-dihydroxy-2,12-dimethyl-3,5-dioxo-8-oxatricyclo[7.4.0.0^2,7]trideca-1(13),6,9,11-tetraen-4-ylidene]ethyl}amino)butanoate]	–	–	–	–	–	–	–	> 10 µM	> 10 µM	> 10 µM	–	> 10 µM
